{
  "source": "patent US10975069B2",
  "about": "“Sigma-2 receptor ligand drug conjugates as antitumor compounds, methods of synthesis and uses thereof” (priority 2014, dated 2021)",
  "key": {"[1]": {"molecular_target": "T1, sigma-2 receptors (Homo sapiens, UniProt Q5BJF2)", "T1 construct": "endogenous in cells", "T1 sequence (Q5BJF2 whole entry)": "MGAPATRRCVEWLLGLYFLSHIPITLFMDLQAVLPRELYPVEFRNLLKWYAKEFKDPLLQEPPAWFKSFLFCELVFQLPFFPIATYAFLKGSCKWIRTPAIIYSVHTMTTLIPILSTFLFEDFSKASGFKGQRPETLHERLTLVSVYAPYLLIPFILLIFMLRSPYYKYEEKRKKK", "test": "Competitive inhibition of internalization of fluorescent sigma-2 ligand SW 120 (flow cytometry)", "assay_type": "cell-based", "details": "increasing concentrations of SW V-49s (0, 10, 30, 50), 30 min 37 °C, then SW120; FIG. 3", "experimental": "In these experiments, competitive binding assays of SW V-49s with the fluorescently labeled sigma-2 ligand SW 120 of structure\nAsPC-1 cells (5×10^5/well) were seeded into a 6 well plate for 24 hours before treatment. The cells were then incubated with […] of SW V-49s for 30 minutes at 37° C. Subsequently, 10 nM of fluorescently labeled sigma-2 ligand SW120 was added to the cell culture medium containing SW V-49s. After 30 minute of incubation at 37° C., cells were washed twice with phosphate buffered saline (PBS) and harvested with 0.05% trypsin EDTA (Life Technologies. Grand Island, N.Y.). Thereafter, the cells were centrifuged at 1000×g for 5 minutes and the pellets were washed twice with PBS. Internalization of SW 120 was determined by flow cytometer (FACSCalibur™, BD Biosciences, San Jose, Calif.)."}, "[2]": {"test_system": "SYO-1 Synovial sarcoma (SS) xenografts", "test": "SYO-1 synovial sarcoma xenograft", "assay_type": "in vivo, athymic nude mice", "details": "300 nmoles for 14 days; FIG. 14E", "experimental": "SYO-1 Synovial sarcoma (SS) xenografts were also treated with 300 nmoles SW V-49. […] FIG. 14E depicts athymic nude mice xenograft of SS cell line SYO-1 treated with SW V-49 (300 nmoles) for 14 days and then followed, p<0.0001. SYO xenografts required a smaller dose of SW V-49 to achieve results similar to those achieved against PDAC."}, "[3]": {"test_system": "KCKO mouse pancreatic tumors", "test": "Syngeneic subcutaneous KCKO pancreatic tumor model", "assay_type": "in vivo, C57BL/6 mice", "text": "FIG. 7 illustrates changes in mean tumor volume (in mm^3) following administration to interval of C57BL/6 mice with established, syngeneic, subcutaneous KCKO mouse pancreatic tumors over a period of 10 days for SW V-49s. Erastin, SV119, a mixture of Erastin and SV119, and a vehicle control. […] Note in FIG. 7 the decrease in tumor volume from approx. 40 mm^3 to approx. 20 mm^3 in SW V 49s-treated mice, compared to an increase from approx. 40 mm^3 to approx. 140 mm^3 for other treatments.\nIn these experiments, in a survival study of the mice reported in Example 9, the group which received SW V-49s survived at 100% (FIG. 8). In all other groups, the mean survival clustered at around 18 days.\nAnimal studies were performed according to the animal studies protocol approved by Washington University Institutional Animal Care Facility. In vivo studies with mice were performed to compare the effects of SW V-49s, SV119. Erastin, a combination of SV119 with Erastin, and vehicle. The vehicle used in the in vivo studies is a mixture of 25% cremophor and 75% H2O. C57BL/6 mice (6 weeks old. National Cancer Institute Laboratories) were injected in the right flank with 200 μL single cell suspension of KCKO cells in RPMI medium (25×10^4/10^5 cells per mouse). Mice were randomized into four groups (n=15). Treatment was started when the mean tumor diameter was ^˜5 mm. Mice received daily intra peritoneal injections with 375 nmoles in 100 μL/dose of SW V-49s and vehicle for 10 days SV119. Erastin, equimolar mix of SV119 and Erastin. Tumors were measured every other day with a digital caliper. Several mice from different treatment groups were sent to the Division of Comparative Medicine in our institution for pathologic evaluation. Blood was collected for complete blood count (CBC) and biochemical analysis (AST, ALT, BUN, total bilirubin, and Cr). Organs were examined grossly and histologically."}, "[4]": {"test_system": "AsPC-1 cells", "test": "CELLTITER-GLO viability after pre-treatment with NAC or ZVAD", "assay_type": "cell-based", "details": "Homo sapiens", "experimental": "To assess the roles of these two mechanisms on the induction of cell death, the effects of pan-caspase inhibitor and antioxidant on the efficacy of SW V-49s were tested. In these experiments, AsPC-1 cells were pre-treated with 10 mM of the antioxidant N acetyl cysteine (NAC), 20 μM of pan-caspase inhibitor ZVAD, and DMSO as a control for 1 hour. Then, the 3 groups were treated with 10 μM of SW V-49s for 5 hours, after which a CELLTITER-GLO® viability assay was performed."}},
  "data": [
    {"compound": "CCOc1ccccc1-n1c(CN2CCN(C(=O)COc3ccc(CNCCCCCCN4C5CCCC4CC(OC(=O)Nc4cc(C)ccc4OC)C5)cc3)CC2)nc2ccccc2c1=O.O=C(O)C(=O)O", "note": "(stereo not shown) [SW V-49s]", "values": [
      {"measurement": "blocking of SW 120 internalization", "setting": "[1]", "value": "efficient blocking of SW 120 internalization"},
      {"measurement": "tumor growth", "setting": "[2]", "value": "Growth inhibition"},
      {"measurement": "change in tumor volume", "setting": "[3]; 10 days, p<0.05, FIG. 7", "value": "significant decrease in tumor volume"},
      {"measurement": "effect on mean tumor volume / tumor growth", "setting": "[3]; daily i.p. 375 nmoles for 10 days, FIG. 14A", "value": "capable of reducing the mean tumor volume"},
      {"measurement": "median survival", "setting": "[3]; daily i.p. 375 nmoles for 10 days, Kaplan-Meier, FIG. 14B", "value": 48, "unit": "days"},
      {"measurement": "mean tumor volume at end of treatment", "setting": "[3]; over a period of 10 days, from approx. 40 mm^3 at start, FIG. 7", "value": "approx. 20 mm^3"},
      {"measurement": "survival", "setting": "[3]; survival study, FIG. 8", "value": 100, "unit": "%"},
      {"measurement": "viability at 10 µM", "setting": "[4]; ASPC1, 10 μM SW V-49s 5 hours after 1 hour pre-treatment with 20 μM ZVAD", "value": 91, "unit": "%"},
      {"measurement": "viability at 10 µM", "setting": "[4]; ASPC1, 10 μM SW V-49s 5 hours after 1 hour pre-treatment with 10 mM NAC", "value": 63, "unit": "%"},
      {"measurement": "viability at 10 µM", "setting": "[4]; ASPC1, 10 μM SW V-49s alone, 5 hours (DMSO pre-treatment)", "value": 39, "unit": "%"}
    ]}
  ]
}
